The values that follow come from patent US10189839B2, “Tricyclic imidazole compounds as inhibitors of tryptophan hydroxylase” (ACTELION PHARMACEUTICALS LTD, priority 2013, dated 2019).

As a reminder, the IC50 is the concentration that gives 50% inhibition.

This assay has as its target T1, full length human TPH1 (Homo sapiens, UniProt P17752).
T1 construct: To generate the enzyme, full length human TPH1 is cloned into the plasmid pET20b(+); made in house; host or cells: E. coli
T1 sequence (P17752 1-444): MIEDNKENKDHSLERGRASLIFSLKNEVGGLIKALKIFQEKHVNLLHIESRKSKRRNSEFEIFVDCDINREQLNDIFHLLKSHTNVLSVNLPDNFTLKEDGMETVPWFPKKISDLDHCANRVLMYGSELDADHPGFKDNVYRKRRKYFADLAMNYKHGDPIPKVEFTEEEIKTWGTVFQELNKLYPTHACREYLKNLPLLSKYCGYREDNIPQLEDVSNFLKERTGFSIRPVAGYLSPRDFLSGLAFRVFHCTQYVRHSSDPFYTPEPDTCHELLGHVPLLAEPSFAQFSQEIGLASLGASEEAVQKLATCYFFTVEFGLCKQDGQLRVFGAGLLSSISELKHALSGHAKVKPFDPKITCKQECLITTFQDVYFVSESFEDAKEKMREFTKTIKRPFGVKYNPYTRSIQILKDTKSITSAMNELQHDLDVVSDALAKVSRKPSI
The experiment in a line: Biochemical in vitro assay using fluorescence readout (TPH1 enzyme activity). As to conditions: Table 1, mean where determined several times. The essentials: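 IC50 (mean of repeats) derived from 5-hydroxy-L-tryptophan fluorescence at 540 nm (300 nm excitation) relative to vehicle, after perchloric acid stop. Reaction: 60 min, 15° C., pH 7.6 Tris-HCl, 40 μM L-tryptophan, 100 μM 6-methyltetrahydropterine, DTT, catalase, with 40-80 nM purified full-length human TPH1 from E. coli.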
In turn, `CCc1nc(NS(C)(=O)=O)ccc1OCC(=O)N1CCc2nc3n(c2C1c1ccc(C2CC2)cc1F)CCS3` (stereo not shown) [Example 4.3.1, N-(5-(2-(5-(4-cyclopropyl-2-fluorophenyl)-2,3,7,8-tetrahydrothiazolo[2′,3′:2,3]imidazo[4,5-c]pyridin-6(5H)-yl)-2-oxoethoxy)-6-ethylpyridin-2-yl)methanesulfonamide] returned an IC50 of 0.006 µM.
In the case of `CS(=O)(=O)Nc1ccc(OCC(=O)N2CCc3nc4n(c3C2c2ccc(C3CC3)cc2F)CCS4)c(Cl)n1` (stereo not shown) [Example 4.3.2, N-(6-chloro-5-(2-(5-(4-cyclopropyl-2-fluorophenyl)-2,3,7,8-tetrahydrothiazolo[2′,3′:2,3]imidazo[4,5-c]pyridin-6(5H)-yl)-2-oxoethoxy)pyridin-2-yl)methanesulfonamide], the IC50 is 0.01 µM.
For `O=C(NC1CC1)c1ccc(OCC(=O)N2CCc3nc4n(c3C2c2ccc(C3CC3)cc2F)CCS4)c(Cl)n1` (stereo not shown) [Example 4.3.3, 6-chloro-N-cyclopropyl-5-(2-(5-(4-cyclopropyl-2-fluorophenyl)-2,3,7,8-tetrahydrothiazolo[2′,3′:2,3]imidazo[4,5-c]pyridin-6(5H)-yl)-2-oxoethoxy)picolinamide] the value was 0.014 µM; for `CCc1nc(NS(C)(=O)=O)ncc1OCC(=O)N1CCc2nc3n(c2C1c1ccc(C2CC2)cc1F)CCS3` (stereo not shown) [Example 4.3.4, N-(5-(2-(5-(4-cyclopropyl-2-fluorophenyl)-2,3,7,8-tetrahydrothiazolo[2′,3′:2,3]imidazo[4,5-c]pyridin-6(5H)-yl)-2-oxoethoxy)-4-ethylpyrimidin-2-yl)methanesulfonamide], 0.025 µM; for `CCc1nc(NS(C)(=O)=O)ccc1OCC(=O)N1CCc2nc3n(c2C1c1ccc(C)c(F)c1F)CCS3` (stereo not shown) [Example 4.4.1, N-(5-(2-(5-(2,3-difluoro-4-methylphenyl)-2,3,7,8-tetrahydrothiazolo[2′,3′:2,3]imidazo[4,5-c]pyridin-6(5H)-yl)-2-oxoethoxy)-6-ethylpyridin-2-yl)methanesulfonamide], 0.006 µM.
In turn, `Cc1ccc(C2c3c(nc4n3CCS4)CCN2C(=O)COc2ccc(C(=O)NC3CC3)nc2Cl)c(F)c1F` (stereo not shown) [Example 4.4.2, 6-chloro-N-cyclopropyl-5-(2-(5-(2,3-difluoro-4-methylphenyl)-2,3,7,8-tetrahydrothiazolo[2′,3′:2,3]imidazo[4,5-c]pyridin-6(5H)-yl)-2-oxoethoxy)picolinamide] returned an IC50 of 0.015 µM.
On to `CCc1nc(NS(C)(=O)=O)ccc1OCC(=O)N1CCc2nc3n(c2C1c1sc(C)nc1C)CCS3` (stereo not shown) [Example 4.5.1, N-(5-(2-(5-(2,4-dimethylthiazol-5-yl)-2,3,7,8-tetrahydrothiazolo[2′,3′:2,3]imidazo[4,5-c]pyridin-6(5H)-yl)-2-oxoethoxy)-6-ethylpyridin-2-yl)methanesulfonamide], for which inhibition was half-maximal at 0.016 µM (IC50).
On to `CCc1nc(N2CCCS2(=O)=O)ccc1OCC(=O)N1CCc2nc3n(c2C1c1sc(C)nc1C)CCS3` (stereo not shown) [Example 4.5.2, 1-(5-(2,4-dimethylthiazol-5-yl)-2,3,7,8-tetrahydrothiazolo[2′,3′:2,3]imidazo[4,5-c]pyridin-6(5H)-yl)-2-((6-(1,1-dioxidoisothiazolidin-2-yl)-2-ethylpyridin-3-yl)oxy)ethanone], for which inhibition was half-maximal at 0.01 µM (IC50).
With `CCc1nc(C(=O)NC2CC2)ccc1OCC(=O)N1CCc2nc3n(c2C1c1sc(C)nc1C)CCS3` (stereo not shown) [Example 4.5.3, N-cyclopropyl-5-(2-(5-(2,4-dimethylthiazol-5-yl)-2,3,7,8-tetrahydrothiazolo[2′,3′:2,3]imidazo[4,5-c]pyridin-6(5H)-yl)-2-oxoethoxy)-6-ethylpicolinamide] the figure was 0.006 µM.
In turn, `CN(C)C(=O)c1ccc(OCC(=O)N2CCc3nc4n(c3C2c2sccc2F)CCS4)c(Cl)n1` (stereo not shown) [Example 4.6.1, 6-chloro-5-(2-(5-(3-fluorothiophen-2-yl)-2,3,7,8-tetrahydrothiazolo[2′,3′:2,3]imidazo[4,5-c]pyridin-6(5H)-yl)-2-oxoethoxy)-N,N-dimethylpicolinamide] yielded an IC50 of 0.028 µM.
For `CS(=O)(=O)Nc1ccc(OCC(=O)N2CCc3nc4n(c3C2c2sccc2F)CCS4)c(Cl)n1` (stereo not shown) [Example 4.6.2, N-(6-chloro-5-(2-(5-(3-fluorothiophen-2-yl)-2,3,7,8-tetrahydrothiazolo[2′,3′:2,3]imidazo[4,5-c]pyridin-6(5H)-yl)-2-oxoethoxy)pyridin-2-yl)methanesulfonamide] the value was 0.058 µM; for `CCc1nc(NS(C)(=O)=O)ccc1OCC(=O)N1CCc2nc3n(c2C1c1sccc1F)CCS3` (stereo not shown) [Example 4.6.3, N-(6-ethyl-5-(2-(5-(3-fluorothiophen-2-yl)-2,3,7,8-tetrahydrothiazolo[2′,3′:2,3]imidazo[4,5-c]pyridin-6(5H)-yl)-2-oxoethoxy)pyridin-2-yl)methanesulfonamide], 0.019 µM; for `CCc1nc(NS(C)(=O)=O)ccc1OCC(=O)N1CCc2nc3n(c2C1c1cc(F)c(C)cc1F)CCS3` (stereo not shown) [Example 4.7.1, N-(5-(2-(5-(2,5-difluoro-4-methylphenyl)-2,3,7,8-tetrahydrothiazolo[2′,3′:2,3]imidazo[4,5-c]pyridin-6(5H)-yl)-2-oxoethoxy)-6-ethylpyridin-2-yl)methanesulfonamide], 0.006 µM.
For `CC(=O)N1CCn2c(nc3c2C(c2ccc(Cl)cc2F)N(C(=O)COc2ccc(N4CC(F)(F)C4)nc2Cl)CC3)C1` (stereo not shown) [Example 5.1.1, 1-(7-acetyl-1-(4-chloro-2-fluorophenyl)-3,4,6,7,8,9-hexahydropyrido[4′,3′:4,5]imida-zo[1,2-a]pyrazin-2(1H)-yl)-2-((2-chloro-6-(3,3-difluoroazetidin-1-yl)pyridin-3-yl)oxy)ethanone] the value was 0.007 µM.
For `CNC(=O)c1ccc(OCC(=O)N2CCc3nc4n(c3C2c2ccc(Cl)cc2F)CCN(C(C)=O)C4)c(Cl)n1` (stereo not shown) [Example 5.1.2, 5-(2-(7-acetyl-1-(4-chloro-2-fluorophenyl)-3,4,6,7,8,9-hexahydropyrido[4′,3′:4,5]imida-zo[1,2-a]pyrazin-2(1H)-yl)-2-oxoethoxy)-6-chloro-N-methylpicolinamide] the value was 0.013 µM; for `CC(=O)N1CCn2c(nc3c2C(c2ccc(Cl)cc2F)N(C(=O)COc2ccc(C(=O)N(C)C)nc2Cl)CC3)C1` (stereo not shown) [Example 5.1.3, 5-(2-(7-acetyl-1-(4-chloro-2-fluorophenyl)-3,4,6,7,8,9-hexahydropyrido[4′,3′:4,5]imidazo[1,2-a]pyrazin-2(1H)-yl)-2-oxoethoxy)-6-chloro-N,N-dimethylpicolinamide], 0.011 µM.
`CN(C)C(=O)c1ccc(OCC(=O)N2CCc3nc4n(c3C2c2ccc(Cl)cc2F)CCN(C2CC2)C4)c(Cl)n1` (stereo not shown) [Example 5.1.4, 6-chloro-5-(2-(1-(4-chloro-2-fluorophenyl)-7-cyclopropyl-3,4,6,7,8,9-hexahydropyrido[4′,3′:4,5]imidazo[1,2-a]pyrazin-2(1H)-yl)-2-oxoethoxy)-N,N-dimethylpicolinamide]: 0.041 µM corresponded to half-maximal inhibition (IC50).
In turn, `CCc1nc(C)ccc1OCC(=O)N1CCc2nc3n(c2C1c1ccc(C2CC2)cc1F)CCN(C(=O)OC(C)(C)C)C3` (stereo not shown) [Example 5.2.1, tert-butyl 1-(4-cyclopropyl-2-fluorophenyl)-2-(2-((2-ethyl-6-methylpyridin-3-yl)oxy)acetyl)-1,2,3,4,8,9-hexahydropyrido[4′,3′:4,5]imidazo[1,2-a]pyrazine-7(6H)-carboxylate] had an IC50 of 0.074 µM.
Regarding `CC(C)(C)OC(=O)N1CCn2c(nc3c2C(c2ccc(C4CC4)cc2F)N(C(=O)COc2ccc(N4CCOCC4)cc2Cl)CC3)C1` (stereo not shown) [Example 5.2.2, tert-butyl 2-(2-(2-chloro-4-morpholinophenoxy)acetyl)-1-(4-cyclopropyl-2-fluorophenyl)-1,2,3,4,8,9-hexahydropyrido[4′,3′:4,5]imidazo[1,2-a]pyrazine-7(6H)-carboxylate], the IC50 was 0.121 µM.
For `CCc1nc(C)ccc1OCC(=O)N1CCc2nc3n(c2C1c1ccc(C2CC2)cc1F)CCNC3` (stereo not shown) [Example 5.2.3, 1-(1-(4-cyclopropyl-2-fluorophenyl)-3,4,6,7,8,9-hexahydropyrido[4′,3′:4,5]imidazo[1,2-a]pyrazin-2(1H)-yl)-2-((2-ethyl-6-methylpyridin-3-yl)oxy)ethanone] the value was 0.054 µM; for `O=C(COc1ccc(N2CCOCC2)cc1Cl)N1CCc2nc3n(c2C1c1ccc(C2CC2)cc1F)CCNC3` (stereo not shown) [Example 5.2.4, 2-(2-chloro-4-morpholinophenoxy)-1-(1-(4-cyclopropyl-2-fluorophenyl)-3,4,6,7,8,9-hexahydropyrido[4′,3′:4,5]imidazo[1,2-a]pyrazin-2(1H)-yl)ethanone], 0.024 µM.
For `CC(=O)N1CCn2c(nc3c2C(c2ccc(C4CC4)cc2F)N(C(=O)COc2ccc(N4CCOCC4)cc2Cl)CC3)C1` (stereo not shown) [Example 5.2.5, 1-(7-acetyl-1-(4-cyclopropyl-2-fluorophenyl)-3,4,6,7,8,9-hexahydropyrido[4′,3′:4,5]imidazo[1,2-a]pyrazin-2(1H)-yl)-2-(2-chloro-4-morpholinophenoxy)ethanone] the value was 0.007 µM.
